This is an account of results in ChEMBL document CHEMBL5149979, “Emerging small-molecule inhibitors of the Bruton's tyrosine kinase (BTK): Current development” (Eur J Med Chem, 2021).

Values after ≈ are worked out from the molar mass of the structure shown.

For data set [1], the target named is T1, Tyrosine-protein kinase BTK (Homo sapiens, UniProt Q06187). Kind of data set: Inhibition of BTK (unknown origin) using Poly(Glu4,Tyr1) as substrate in presence of ATP.
The nature of data set [2]: Kinetic solubility of the compound. In kind it is physicochemical. The note with it: read-out: Kinetic_solubility.
Data set [3] deals with T1, Tyrosine-protein kinase BTK. Kind of data set: Inhibition of BTK (unknown origin) incubated for 40 mins by radiometric assay.
Data set [4] can be described thus: Antiproliferative activity against human MINO cells reduction in cell viability incubated for 72 hrs by CellTiter-Glo luminescent cell viability assay. In kind it is functional, cell-based. (ATP-based viability assays read luminescence as a measure of living cells.)
The target of data set [5] is T1, Tyrosine-protein kinase BTK. Kind of data set: Inhibition of BTK (unknown origin) incubated for 60 mins by ADP-Glo kinase assay. On the technique in general: In ADP-Glo the light output rises with the ADP produced.
The test system of data set [6] is NAMALVA. Kind of data set: Antiproliferative activity against human NAMALWA cells assessed as reduction in cell viability measured after 72 hrs by CCK-8 assay. In kind it is functional, cell-based. On the technique in general: Tetrazolium assays rely on reduction of a dye to a coloured formazan, in cell work by metabolically active cells.
Data set [7] concerns Ramos. Briefly: Antiproliferative activity against human Ramos cells assessed as reduction in cell viability measured after 72 hrs by CCK-8 assay. In kind it is functional, cell-based.
Data set [8] relates to Raji. Kind of data set: Antiproliferative activity against human Raji cells assessed as reduction in cell viability measured after 72 hrs by CCK-8 assay. In kind it is functional, cell-based.
The subject of data set [9] is HL-60. Briefly: Antiproliferative activity against human HL-60 cells assessed as reduction in cell viability measured after 72 hrs by CCK-8 assay. The note with it: HL-60, 72 h.
The test system of data set [10] is U-937. Kind of data set: Antiproliferative activity against human U-937 cells assessed as reduction in cell viability measured after 72 hrs by CCK-8 assay. Particulars: U-937, 72 h.
The subject of data set [11] is U-937. Kind of data set: Induction of apoptosis in human U-937 cells assessed as […] at 40 nM incubated for 48 hrs by AnnexinV-FITC/propidium iodide staining based flow cytometry analysis relative to control. In kind it is functional.
Data set [12] concerns the target T1, Tyrosine-protein kinase BTK. Briefly: Inhibition of BTK (unknown origin) using Poly(Glu4,Tyr1) as substrate in presence of ATP by radiometric kinase assay.
Data set [13] addresses Bcr/Abl fusion protein (Homo sapiens, UniProt P00519). Kind of data set: Inhibition of BCR-ABL (unknown origin) using peptide GGEAIYAAPFKK as substrate. In kind it is protein assay.
In data set [14] the test system is Ramos. Briefly: Antiproliferative activity against human Ramos cells assessed as growth inhibition incubated for 72 hrs by resazurin dye based fluorescence microplate reader analysis. In kind it is functional.
Data set [15] addresses T1, Tyrosine-protein kinase BTK. Briefly: Inhibition of BTK (unknown origin) incubated for 10 mins by caliper mobility shift assay.
Data set [16] has as its system OCI-Ly10. Kind of data set: Antiproliferative activity against human OCILY10 cells assessed as inhibition of cell proliferation by MTT assay. In kind it is functional, cell-based.
For data set [17], the system named is DOHH-2. Briefly: Antiproliferative activity against human DOHH-2 cells assessed as inhibition of cell proliferation by MTT assay. In kind it is functional, cell-based.
Data set [18] relates to Rec1. Kind of data set: Antiproliferative activity against human REC1 cells assessed as inhibition of cell proliferation by MTT assay. In kind it is functional, cell-based.
Data set [19] in a line: Antiproliferative activity against human MINO cells assessed as inhibition of cell proliferation by MTT assay. In kind it is functional, cell-based.
Data set [20] relates to L02. Briefly: Antiproliferative activity against human L02 cells assessed as reduction in cell viability by MTT assay. In kind it is functional, cell-based.
Data set [21] deals with HEK293. Briefly: Antiproliferative activity against human HEK293 cells assessed as reduction in cell viability by MTT assay. In kind it is functional, cell-based.
Data set [22] is described as follows: Oral bioavailability in rat at 30 mg/kg measured upto 8 hrs. In kind it is ADME, organism-based. Particulars: in vivo.
Data set [23] has as its target T1, Tyrosine-protein kinase BTK. Briefly: Inhibition of recombinant human wild type BTK using Poly(Glu4,Tyr1) and ATP as substrate measured after 2 hrs by ADP-Glo kinase assay.
Data set [24] can be described thus: Inhibition of recombinant human BTK cys481S mutant using Poly(Glu4,Tyr1) and ATP as substrate measured after 2 hrs by ADP-Glo kinase assay.
Data set [25] relates to TMD8. Kind of data set: Antiproliferative activity against human TMD8 cells assessed as reduction in cell viability incubated for 96 hrs by MTT assay. In kind it is functional, cell-based. Particulars: TMD8, 96 h.
Data set [26] concerns Raji. Kind of data set: Antiproliferative activity against human Raji cells assessed as reduction in cell viability incubated for 96 hrs by MTT assay. In kind it is functional, cell-based.
Data set [27] relates to TMD8. Briefly: Antitumor activity against human TMD8 cells xenografted in SCID mouse assessed as tumor growth inhibition at 1.5 mg/kg, po bid administered daily 20 days by caliper analysis. In kind it is functional. Particulars: TMD8, 480 h, time 20 day, read-out: TGI.
Data set [28] relates to TMD8. Briefly: Antitumor activity against human TMD8 cells xenografted in SCID mouse assessed as tumor growth inhibition at 3 mg/kg, po bid administered daily 20 days by caliper analysis. In kind it is functional. The note with it: TMD8, 480 h, time 20 day, read-out: TGI.
Data set [29] deals with TMD8. Briefly: Antitumor activity against human TMD8 cells xenografted in SCID mouse assessed as tumor growth inhibition at 15 mg/kg, po bid administered daily 20 days by caliper analysis. In kind it is functional. Particulars: TMD8, 480 h, time 20 day, read-out: TGI.
For data set [30], the target named is Epidermal growth factor receptor (Homo sapiens, UniProt P00533). Briefly: Inhibition EGFR (unknown origin) expressed in baculovirus expression system by ELISA.
In data set [31] the test system is TMD8. Briefly: Antiproliferative activity against human TMD8 cells assessed as reduction in cell viability incubated for 72 hrs by CCK-8 assay. In kind it is functional, cell-based. The note with it: TMD8, 72 h.
The test system of data set [32] is Z-138. Briefly: Antiproliferative activity against human Z138 cells reduction in cell viability incubated for 72 hrs by CellTiter-Glo luminescent cell viability assay. The note with it: Z-138, 72 h.

T1 sequence (Q06187 whole entry): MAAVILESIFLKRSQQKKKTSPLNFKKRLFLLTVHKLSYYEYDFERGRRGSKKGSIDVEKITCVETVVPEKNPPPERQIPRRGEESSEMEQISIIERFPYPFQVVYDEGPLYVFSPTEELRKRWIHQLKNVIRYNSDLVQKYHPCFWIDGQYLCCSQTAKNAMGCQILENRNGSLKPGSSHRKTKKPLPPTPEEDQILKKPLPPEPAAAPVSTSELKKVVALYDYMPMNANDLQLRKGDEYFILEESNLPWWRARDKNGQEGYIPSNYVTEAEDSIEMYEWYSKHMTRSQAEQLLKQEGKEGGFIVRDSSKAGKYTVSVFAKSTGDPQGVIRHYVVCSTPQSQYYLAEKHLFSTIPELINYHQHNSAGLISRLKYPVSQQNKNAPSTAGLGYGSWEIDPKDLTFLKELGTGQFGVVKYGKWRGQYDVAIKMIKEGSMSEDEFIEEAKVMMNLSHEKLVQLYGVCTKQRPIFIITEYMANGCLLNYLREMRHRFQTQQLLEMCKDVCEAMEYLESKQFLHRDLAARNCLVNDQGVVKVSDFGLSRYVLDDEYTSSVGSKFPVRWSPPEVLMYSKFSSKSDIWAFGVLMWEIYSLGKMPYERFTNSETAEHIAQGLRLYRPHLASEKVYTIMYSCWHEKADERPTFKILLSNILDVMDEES
Chain of Epidermal growth factor receptor (P00533 whole entry): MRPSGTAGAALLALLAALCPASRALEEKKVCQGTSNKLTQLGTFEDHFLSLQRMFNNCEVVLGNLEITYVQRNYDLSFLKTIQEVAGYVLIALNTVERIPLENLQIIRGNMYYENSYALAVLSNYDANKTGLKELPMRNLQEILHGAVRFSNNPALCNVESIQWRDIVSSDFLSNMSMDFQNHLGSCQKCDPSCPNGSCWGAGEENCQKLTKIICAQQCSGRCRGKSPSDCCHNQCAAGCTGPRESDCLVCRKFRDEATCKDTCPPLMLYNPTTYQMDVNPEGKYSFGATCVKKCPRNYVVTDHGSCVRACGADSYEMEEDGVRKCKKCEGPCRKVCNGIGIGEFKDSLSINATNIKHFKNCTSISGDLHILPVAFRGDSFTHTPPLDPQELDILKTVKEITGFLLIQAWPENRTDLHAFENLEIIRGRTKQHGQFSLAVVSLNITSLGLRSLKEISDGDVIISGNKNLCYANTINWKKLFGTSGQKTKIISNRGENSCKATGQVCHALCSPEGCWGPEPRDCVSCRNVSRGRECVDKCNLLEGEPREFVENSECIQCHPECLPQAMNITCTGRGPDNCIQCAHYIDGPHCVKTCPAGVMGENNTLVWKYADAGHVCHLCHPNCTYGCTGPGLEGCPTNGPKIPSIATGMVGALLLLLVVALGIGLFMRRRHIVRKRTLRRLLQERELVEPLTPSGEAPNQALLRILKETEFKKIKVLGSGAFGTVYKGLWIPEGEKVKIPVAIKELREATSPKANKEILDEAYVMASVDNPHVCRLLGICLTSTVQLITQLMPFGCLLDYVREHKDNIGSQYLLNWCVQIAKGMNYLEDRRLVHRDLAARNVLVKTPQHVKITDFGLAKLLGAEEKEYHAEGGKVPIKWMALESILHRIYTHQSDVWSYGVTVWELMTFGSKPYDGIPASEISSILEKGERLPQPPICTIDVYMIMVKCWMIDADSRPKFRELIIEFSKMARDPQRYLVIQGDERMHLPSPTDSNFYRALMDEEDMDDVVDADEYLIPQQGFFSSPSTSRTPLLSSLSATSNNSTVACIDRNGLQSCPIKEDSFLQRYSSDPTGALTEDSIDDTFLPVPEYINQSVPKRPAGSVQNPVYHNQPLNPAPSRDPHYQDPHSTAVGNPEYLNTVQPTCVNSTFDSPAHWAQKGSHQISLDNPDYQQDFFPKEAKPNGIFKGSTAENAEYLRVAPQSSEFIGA
Chain of Bcr/Abl fusion protein (P00519 whole entry, the tested form may be a part): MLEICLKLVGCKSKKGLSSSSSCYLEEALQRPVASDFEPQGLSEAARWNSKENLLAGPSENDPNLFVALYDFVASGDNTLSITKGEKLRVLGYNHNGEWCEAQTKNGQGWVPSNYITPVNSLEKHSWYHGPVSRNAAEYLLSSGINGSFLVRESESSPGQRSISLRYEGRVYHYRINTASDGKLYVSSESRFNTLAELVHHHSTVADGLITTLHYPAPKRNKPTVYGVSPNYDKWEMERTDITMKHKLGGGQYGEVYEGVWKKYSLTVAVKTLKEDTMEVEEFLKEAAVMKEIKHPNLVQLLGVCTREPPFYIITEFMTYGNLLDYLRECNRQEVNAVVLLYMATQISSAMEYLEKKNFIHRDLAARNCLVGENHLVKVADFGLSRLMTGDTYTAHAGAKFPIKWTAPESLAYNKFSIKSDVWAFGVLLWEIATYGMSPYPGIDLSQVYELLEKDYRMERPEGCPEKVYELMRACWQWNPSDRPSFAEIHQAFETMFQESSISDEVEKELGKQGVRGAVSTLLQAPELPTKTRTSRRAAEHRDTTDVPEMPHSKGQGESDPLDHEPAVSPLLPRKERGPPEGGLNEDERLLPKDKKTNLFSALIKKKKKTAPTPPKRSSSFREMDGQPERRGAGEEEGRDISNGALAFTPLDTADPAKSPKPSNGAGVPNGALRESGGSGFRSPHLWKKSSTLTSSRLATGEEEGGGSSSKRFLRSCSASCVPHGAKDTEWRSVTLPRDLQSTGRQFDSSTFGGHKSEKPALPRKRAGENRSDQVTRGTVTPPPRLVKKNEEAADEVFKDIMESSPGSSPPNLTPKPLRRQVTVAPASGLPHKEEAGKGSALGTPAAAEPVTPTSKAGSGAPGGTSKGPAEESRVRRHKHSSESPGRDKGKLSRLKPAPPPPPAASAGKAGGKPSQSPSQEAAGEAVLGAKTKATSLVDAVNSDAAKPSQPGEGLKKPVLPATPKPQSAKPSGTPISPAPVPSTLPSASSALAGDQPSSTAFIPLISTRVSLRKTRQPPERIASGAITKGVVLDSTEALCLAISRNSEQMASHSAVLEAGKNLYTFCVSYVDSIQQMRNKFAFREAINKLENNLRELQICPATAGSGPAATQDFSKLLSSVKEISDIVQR
Chain of Bcr/Abl fusion protein (P11274 whole entry, further chain, the tested form may be a part): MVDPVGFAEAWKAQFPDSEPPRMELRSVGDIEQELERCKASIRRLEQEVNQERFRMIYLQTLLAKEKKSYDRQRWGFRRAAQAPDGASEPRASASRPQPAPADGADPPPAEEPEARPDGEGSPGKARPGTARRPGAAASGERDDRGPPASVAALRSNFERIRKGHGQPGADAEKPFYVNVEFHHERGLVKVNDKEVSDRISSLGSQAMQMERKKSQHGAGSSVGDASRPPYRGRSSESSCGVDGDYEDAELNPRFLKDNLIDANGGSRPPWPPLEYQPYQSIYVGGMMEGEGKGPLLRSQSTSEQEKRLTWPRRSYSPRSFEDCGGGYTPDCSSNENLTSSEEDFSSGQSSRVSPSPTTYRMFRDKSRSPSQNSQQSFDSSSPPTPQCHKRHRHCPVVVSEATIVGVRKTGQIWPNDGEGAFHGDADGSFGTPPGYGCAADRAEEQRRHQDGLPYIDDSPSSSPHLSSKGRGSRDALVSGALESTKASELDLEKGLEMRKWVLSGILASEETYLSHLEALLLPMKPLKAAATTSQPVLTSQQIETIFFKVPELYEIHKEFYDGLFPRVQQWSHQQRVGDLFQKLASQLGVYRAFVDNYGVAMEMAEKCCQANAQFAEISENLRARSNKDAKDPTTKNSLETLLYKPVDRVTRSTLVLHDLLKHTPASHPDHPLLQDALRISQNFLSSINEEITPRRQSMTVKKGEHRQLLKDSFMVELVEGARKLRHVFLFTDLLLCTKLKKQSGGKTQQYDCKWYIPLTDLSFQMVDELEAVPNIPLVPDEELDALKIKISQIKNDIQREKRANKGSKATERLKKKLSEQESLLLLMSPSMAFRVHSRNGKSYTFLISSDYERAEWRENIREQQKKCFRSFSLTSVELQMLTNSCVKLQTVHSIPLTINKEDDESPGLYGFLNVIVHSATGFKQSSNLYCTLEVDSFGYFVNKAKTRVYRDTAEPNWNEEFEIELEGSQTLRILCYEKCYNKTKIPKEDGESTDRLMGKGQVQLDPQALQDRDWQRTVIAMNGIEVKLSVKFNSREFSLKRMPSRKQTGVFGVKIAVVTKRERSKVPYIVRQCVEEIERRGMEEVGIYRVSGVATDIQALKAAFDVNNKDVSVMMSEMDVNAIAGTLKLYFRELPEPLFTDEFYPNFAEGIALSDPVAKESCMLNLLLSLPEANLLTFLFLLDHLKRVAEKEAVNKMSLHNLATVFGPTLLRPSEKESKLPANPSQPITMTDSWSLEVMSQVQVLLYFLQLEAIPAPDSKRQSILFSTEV

Turning to `C=CS(=O)(=O)N1CCC(Cn2cc(-c3ccc4c(c3)OCO4)c3c(N)ncnc32)CC1`, the IC50 in data set [1] was 0.00132 µM. In data set [2], the solubility kinetic was found to be 100 µg/mL (≈ 226 µM).
Regarding `Nc1ccc(Cn2nc(-c3ccc(Oc4ccccc4)cc3)c3c(N)ncnc32)cc1`, the IC50 in data set [3] came out at 0.082 µM; in data set [4], 13.9 µM.
Consider `C=CC(=O)Nc1cccc(Nc2nc(Nc3ccc(Cn4cc(C)nc4CC)cc3)ncc2Cl)c1`, for which the IC50 was 0.0177 µM in [5]; less than 10.8 µM in data set [6]; less than 10.8 µM in [7]; less than 10.8 µM in data set [8]; 0.109 µM in data set [9]; 0.038 µM in data set [10]. In addition, in [11], the Activity was determined as 55%.
`CN1CCN(c2ccc(Nc3nc(Nc4ccc(F)c(F)c4)c4ncn(CC5CC5)c4n3)cc2F)CC1`: the IC50 came out at 2.65 µM in data set [12] and 0.58 µM in data set [13]. The GI50 in [14] was determined as 4.1 µM.
Take `C=C(Cl)C(=O)N1CCC[C@H](n2nc(-c3ccc(Oc4ccccc4)cc3)c3c(N)ncnc32)C1`: the IC50 in data set [15] was found to be 0.0025 µM; in [16] it was 0.16 µM; in data set [17], 0.22 µM; in data set [18] it was 0.01 µM; in data set [19], 0.56 µM; in data set [20] it was 15.9 µM. Further, the IC50 in data set [21] was determined as 5.46 µM. The same compound returned a bioavailability in data set [22] of 6%.
As for `Nc1cccc(Cn2nc(-c3ccc(Oc4ccccc4)cc3)c3c(N)ncnc32)c1`, the IC50 is 0.075 µM in data set [3] and 9.5 µM in data set [4].
As to `C=CC(=O)Nc1cccc(Nc2nc(Nc3ccc(Cn4cc(C)nc4CC)cc3)ncc2F)c1`, the IC50 is 0.0424 µM in data set [5]; less than 10.8 µM in data set [6]; less than 10.8 µM in data set [7]; less than 10.8 µM in [8]; 0.116 µM in data set [9]; 0.106 µM in data set [10].
In the case of `CN1CCN(c2ccc(Nc3nc(Nc4ccc(F)c(F)c4)c4ncn(CC5CC5)c4n3)cc2)CC1`, the IC50 in data set [12] came out at 0.58 µM. Further, the GI50 in data set [14] was found to be 4.63 µM.
Turning to `C=CC(=O)N1CC2CC(n3nc(-c4ccc(C(=O)Nc5ccccn5)cc4)c4c(N)ncnc43)CC2C1` (stereo not given), the IC50 was 0.001 µM in data set [23], 0.014 µM in data set [24], 0.00078 µM in [25] and 13.2 µM in data set [26]. Also, the inhibition in vivo at 1.5 mg/kg in data set [27] worked out at 10%. Further, in [28], the inhibition in vivo at 3 mg/kg amounted to 50%. Moreover, the inhibition in vivo at 15 mg/kg in data set [29] was 88%.
With `C=CC(=O)Nc1cccc(N2C(=O)OC(C)c3cnc(Nc4ccc(N5CCN(C)CC5)cc4OC)nc32)c1` (stereo not given), the values for the IC50 in [1], in [30] and in [31] were 0.007 µM, 0.0474 µM and 0.028 µM, respectively.
For the compound `Nc1ncnc2c1c(-c1ccc(Oc3ccccc3)cc1)nn2Cc1cccc(NC(=O)CCl)c1`, the IC50 in data set [3] was determined as 0.027 µM; in data set [4] it was 0.9 µM.
Take `C=CC(=O)Nc1cccc(N2C(=O)OCc3cnc(Nc4ccc(N5CCN(C)CC5)cc4OC)nc32)c1`: the IC50 worked out at 0.0047 µM in data set [1] and 0.0288 µM in data set [30].
For the compound `Nc1ncnc2c1c(-c1ccc(Oc3ccccc3)nc1)nn2C1CCCN(C(=O)CCl)C1` (stereo not given), the IC50 was determined as 0.036 µM in data set [3], 0.4 µM in [4] and 0.4 µM in data set [32].
As to `C=CC(=O)N1CCCC(Cn2cc(-c3ccc(Oc4ccccc4)cc3)c3c(N)ncnc32)C1` (single isomer, unassigned), the IC50 in data set [1] came out at 0.00171 µM.

The term IC50 denotes the concentration that gives 50% inhibition. The GI50 is the concentration that inhibits growth by half. As a reminder, the bioavailability is dose-corrected exposure relative to a reference, in per cent. Read a high bioavailability as good availability.
